# Counter-ions that a name gives are not always drawn.
# How the values were obtained:
# Format in all cases: physicochemical
# [1] = In vitro aerosolization performance (Next Generation Impactor) of beclomethasone dipropionate / formoterol fumarate dihydrate combination MDI formulations; conditions: after 1 month at ambient conditions, NGI 30 L/min
# [2] = In vitro aerosolization performance (Next Generation Impactor) of beclomethasone dipropionate MDI formulations in HFA-152a with varying ethanol and glycerol; conditions: immediately after preparation
# Description: A number of experiments were conducted to investigate the effects of glycerol on the in vitro aerosolization performance of drug formulations of beclomethasone dipropionate delivered from a metered dose inhaler (MDI) using HFA-152a as the propellant.
# Pharmaceutical formulations of beclomethasone dipropionate were prepared in HFA-152a (Mexichem, UK). […] Anhydrous ethanol in an amount of 5, 10 or 15 weight % based on the total weight of the formulation and glycerol in an amount of 0, 1 or 2 weight %, again based on the total weight of the formulation, were then added to the canisters. […] The nominal dose of beclomethasone dipropionate was […].
# [3] = Chemical stability (total impurities) of beclomethasone dipropionate formulations with varying ethanol and glycerol in uncoated aluminium cans; conditions: for % Total Imps T = 0 / % Total Imps T = 1 M @ 40° C./75% RH / % Total Imps T = 3 M @ 40° C./75% RH: uncoated aluminium cans
# Description: A number of experiments were conducted to investigate the stability of beclomethasone dipropionate in HFA-134a and HFA-152a.
# Anhydrous ethanol in an amount of 5, 10 or 15 weight % based on the total weight of the formulation and glycerol in an amount of 0, 1 or 2 weight %, again based on the total weight of the formulation, were then added to the canisters. […] The nominal dose of beclomethasone dipropionate was […].
# [4] = combination formulation in HFA-134a and 10 weight % ethanol
# [5] = combination formulation in HFA-152a and 10 weight % ethanol
# [6] = 5 wt. % ethanol, 0 wt. % glycerol
# [7] = 5 wt. % ethanol, 1 wt. % glycerol
# [8] = 5 wt. % ethanol, 2 wt. % glycerol
# [9] = 10 wt. % ethanol, 0 wt. % glycerol
# [10] = 10 wt. % ethanol, 1 wt. % glycerol
# [11] = 10 wt. % ethanol, 2 wt. % glycerol
# [12] = 15 wt. % ethanol, 0 wt. % glycerol
# [13] = 15 wt. % ethanol, 1 wt. % glycerol
# [14] = 15 wt. % ethanol, 2 wt. % glycerol
# [15] = HFA-134a, 5 wt. % ethanol, 0 wt. % glycerol
# [16] = HFA-134a, 5 wt. % ethanol, 1 wt. % glycerol
# [17] = HFA-134a, 5 wt. % ethanol, 2 wt. % glycerol
# [18] = HFA-134a, 10 wt. % ethanol, 0 wt. % glycerol
# [19] = HFA-134a, 10 wt. % ethanol, 1 wt. % glycerol
# [20] = HFA-134a, 10 wt. % ethanol, 2 wt. % glycerol
# [21] = HFA-134a, 15 wt. % ethanol, 0 wt. % glycerol
# [22] = HFA-134a, 15 wt. % ethanol, 1 wt. % glycerol
# [23] = HFA-134a, 15 wt. % ethanol, 2 wt. % glycerol
# [24] = HFA-152a, 5 wt. % ethanol, 0 wt. % glycerol
# [25] = HFA-152a, 5 wt. % ethanol, 1 wt. % glycerol
# [26] = HFA-152a, 5 wt. % ethanol, 2 wt. % glycerol
# [27] = HFA-152a, 10 wt. % ethanol, 0 wt. % glycerol
# [28] = HFA-152a, 10 wt. % ethanol, 1 wt. % glycerol
# [29] = HFA-152a, 10 wt. % ethanol, 2 wt. % glycerol
# [30] = HFA-152a, 15 wt. % ethanol, 0 wt. % glycerol
# [31] = HFA-152a, 15 wt. % ethanol, 1 wt. % glycerol
# [32] = HFA-152a, 15 wt. % ethanol, 2 wt. % glycerol
smiles,measurement,setting,value
CCC(=O)OCC(=O)[C@@]1(OC(=O)CC)[C@@H](C)C[C@H]2[C@@H]3CCC4=CC(=O)C=C[C@]4(C)[C@@]3(Cl)[C@@H](O)C[C@@]21C [beclomethasone dipropionate],FPFED %,[1]; [4],63.16%
same,Fine Particle Dose,[1]; [4],98.92 µg
same,MMAD ± GSD,[1]; [4],1.41 ± 1.95 μm
same,FPFED %,[1]; [5],55.67%
same,Fine Particle Dose,[1]; [5],105.11 µg
same,MMAD ± GSD,[1]; [5],1.57 ± 1.98 μm
same,FPFED,[2]; [6],65.17%
same,FPM,[2]; [6],114.36 µg
same,MMAD (μm) ± GSD,[2]; [6],1.27 ± 1.80 μm
same,FPFED,[2]; [7],67.97%
same,FPM,[2]; [7],123.94 µg
same,MMAD (μm) ± GSD,[2]; [7],1.55 ± 1.93 μm
same,FPFED,[2]; [8],65.69%
same,FPM,[2]; [8],120.25 µg
same,MMAD (μm) ± GSD,[2]; [8],1.62 ± 2.06 μm
same,FPFED,[2]; [9],59.47%
same,FPM,[2]; [9],117.15 µg
same,MMAD (μm) ± GSD,[2]; [9],1.33 ± 1.84 μm
same,FPFED,[2]; [10],58.64%
same,FPM,[2]; [10],116.83 µg
same,MMAD (μm) ± GSD,[2]; [10],2.09 ± 1.92 μm
same,FPFED,[2]; [11],55.76%
same,FPM,[2]; [11],104.23 µg
same,MMAD (μm) ± GSD,[2]; [11],2.19 ± 2.12 μm
same,FPFED,[2]; [12],50.99%
same,FPM,[2]; [12],102.86 µg
same,MMAD (μm) ± GSD,[2]; [12],1.42 ± 2.02 μm
same,FPFED,[2]; [13],48.85%
same,FPM,[2]; [13],96.11 µg
same,MMAD (μm) ± GSD,[2]; [13],2.29 ± 2.06 μm
same,FPFED,[2]; [14],43.57%
same,FPM,[2]; [14],83.04 µg
same,MMAD (μm) ± GSD,[2]; [14],2.59 ± 2.12 μm
same,% Total Imps T = 0,[3]; [15],0.89%
same,% Total Imps T = 1 M @ 40° C./75% RH,[3]; [15],1.58%
same,% Total Imps T = 3 M @ 40° C./75% RH,[3]; [15],2.08%
same,% Total Imps T = 0,[3]; [16],0.34%
same,% Total Imps T = 1 M @ 40° C./75% RH,[3]; [16],1.91%
same,% Total Imps T = 3 M @ 40° C./75% RH,[3]; [16],2.14%
same,% Total Imps T = 0,[3]; [17],0.55%
same,% Total Imps T = 1 M @ 40° C./75% RH,[3]; [17],0.78%
same,% Total Imps T = 3 M @ 40° C./75% RH,[3]; [17],1.18%
same,% Total Imps T = 0,[3]; [18],1.16%
same,% Total Imps T = 1 M @ 40° C./75% RH,[3]; [18],1.82%
same,% Total Imps T = 3 M @ 40° C./75% RH,[3]; [18],2.21%
same,% Total Imps T = 0,[3]; [19],1.34%
same,% Total Imps T = 1 M @ 40° C./75% RH,[3]; [19],2.25%
same,% Total Imps T = 3 M @ 40° C./75% RH,[3]; [19],2.49%
same,% Total Imps T = 0,[3]; [20],1.49%
same,% Total Imps T = 1 M @ 40° C./75% RH,[3]; [20],1.97%
same,% Total Imps T = 3 M @ 40° C./75% RH,[3]; [20],2.35%
same,% Total Imps T = 0,[3]; [21],1.08%
same,% Total Imps T = 1 M @ 40° C./75% RH,[3]; [21],2.35%
same,% Total Imps T = 3 M @ 40° C./75% RH,[3]; [21],4.21%
same,% Total Imps T = 0,[3]; [22],2.88%
same,% Total Imps T = 1 M @ 40° C./75% RH,[3]; [22],3.15%
same,% Total Imps T = 3 M @ 40° C./75% RH,[3]; [22],3.99%
same,% Total Imps T = 0,[3]; [23],2.95%
same,% Total Imps T = 1 M @ 40° C./75% RH,[3]; [23],4.22%
same,% Total Imps T = 3 M @ 40° C./75% RH,[3]; [23],4.89%
same,% Total Imps T = 0,[3]; [24],0.08%
same,% Total Imps T = 1 M @ 40° C./75% RH,[3]; [24],0.16%
same,% Total Imps T = 3 M @ 40° C./75% RH,[3]; [24],0.35%
same,% Total Imps T = 0,[3]; [25],0.11%
same,% Total Imps T = 1 M @ 40° C./75% RH,[3]; [25],0.15%
same,% Total Imps T = 3 M @ 40° C./75% RH,[3]; [25],0.28%
same,% Total Imps T = 0,[3]; [26],0.09%
same,% Total Imps T = 1 M @ 40° C./75% RH,[3]; [26],0.21%
same,% Total Imps T = 3 M @ 40° C./75% RH,[3]; [26],0.34%
same,% Total Imps T = 0,[3]; [27],0.21%
same,% Total Imps T = 1 M @ 40° C./75% RH,[3]; [27],0.35%
same,% Total Imps T = 3 M @ 40° C./75% RH,[3]; [27],0.42%
same,% Total Imps T = 0,[3]; [28],0.34%
same,% Total Imps T = 1 M @ 40° C./75% RH,[3]; [28],0.36%
same,% Total Imps T = 3 M @ 40° C./75% RH,[3]; [28],0.55%
same,% Total Imps T = 0,[3]; [29],0.23%
same,% Total Imps T = 1 M @ 40° C./75% RH,[3]; [29],0.29%
same,% Total Imps T = 3 M @ 40° C./75% RH,[3]; [29],0.31%
same,% Total Imps T = 0,[3]; [30],0.56%
same,% Total Imps T = 1 M @ 40° C./75% RH,[3]; [30],0.89%
same,% Total Imps T = 3 M @ 40° C./75% RH,[3]; [30],1.11%
same,% Total Imps T = 0,[3]; [31],0.66%
same,% Total Imps T = 1 M @ 40° C./75% RH,[3]; [31],0.79%
same,% Total Imps T = 3 M @ 40° C./75% RH,[3]; [31],1.56%
same,% Total Imps T = 0,[3]; [32],0.72%
same,% Total Imps T = 1 M @ 40° C./75% RH,[3]; [32],0.89%
same,% Total Imps T = 3 M @ 40° C./75% RH,[3]; [32],1.48%
same,stability with HFA-152a as propellant rather than HFA-134a,"[3]; all investigated levels of ethanol and glycerol, comparison of Tables 10 and 11",significantly higher
COc1ccc(CC(C)NCC(O)c2ccc(O)c(NC=O)c2)cc1 (stereo not shown) [formoterol fumarate dihydrate],FPFED %,[1]; [4],66.35%
same,Fine Particle Dose,[1]; [4],3.67 µg
same,MMAD ± GSD,[1]; [4],1.36 ± 2.00 μm
same,FPFED %,[1]; [5],60.01%
same,Fine Particle Dose,[1]; [5],3.57 µg
same,MMAD ± GSD,[1]; [5],1.51 ± 2.08 μm
